Source: PubChem BioAssay (NCI)
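All cell lines were grown in 96-well plates and treated with compound for 48 hours. Definition used: TGI = concentration required for complete inhibition of growth.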

Experiments:
Assay in all cases: NCI anticancer screen, dose series, 48 h
[1] = test system: SF-539 CNS
[2] = test system: SF-268 CNS
[3] = test system: TK-10 renal
[4] = test system: SR leukemia
[5] = test system: HL-60(TB) leukemia
[6] = test system: MALME-3M melanoma
[7] = test system: COLO 205 colon
[8] = test system: T-47D breast
[9] = test system: MDA-N
[10] = test system: SNB-19 CNS
[11] = test system: UACC-62 melanoma
[12] = test system: CCRF-CEM leukemia
[13] = test system: HCT-116 colon
[14] = test system: UO-31 renal
[15] = test system: OVCAR-4 ovarian
[16] = test system: CAKI-1 renal
[17] = test system: SK-MEL-28 melanoma
[18] = test system: MDA-MB-435
[19] = test system: NCI-H23 lung
[20] = test system: LOX IMVI melanoma
[21] = test system: SK-MEL-5 melanoma
[22] = test system: PC-3 prostate
[23] = test system: HCT-15 colon
[24] = test system: RPMI-8226 leukemia
[25] = test system: SNB-75 CNS
[26] = test system: IGROV1 ovarian
[27] = test system: U251 CNS
[28] = test system: OVCAR-5 ovarian
[29] = test system: MOLT-4 leukemia
[30] = test system: BT-549 breast
[31] = test system: RXF 393 renal
[32] = test system: UACC-257 melanoma
[33] = test system: K-562 leukemia
[34] = test system: NCI-H226 lung
[35] = test system: KM12 colon
[36] = test system: HT29 colon
[37] = test system: HOP-62 NSCLC
[38] = test system: HS 578T breast
[39] = test system: NCI/ADR-RES ovarian
[40] = test system: DU-145 prostate
[41] = test system: SW-620 colon
[42] = test system: SF-295 CNS
[43] = test system: MDA-MB-231 breast
[44] = test system: OVCAR-3 ovarian
[45] = test system: 786-0 renal
[46] = test system: A549 NSCLC
[47] = test system: HOP-92 NSCLC
[48] = test system: SK-OV-3 ovarian
[49] = test system: OVCAR-8 ovarian
[50] = test system: M14 melanoma
[51] = test system: A498 renal
[52] = test system: NCI-H460 lung
[53] = test system: MCF7 breast
[54] = test system: SK-MEL-2 melanoma
[55] = test system: EKVX NSCLC
[56] = test system: NCI-H522 lung
[57] = test system: SN12C renal
[58] = test system: ACHN renal
[59] = test system: HCC-2998 colon

Measured: TGI

CN(C)CCN1C(=O)CC[C@@]2(C)C1=CC[C@@H]1[C@@H]2CC[C@@]2(C)[C@H]1CC[C@]2(C)O
> 100 µM: [1] | [2] | [3] | [4] | [5] | [6] | [7] | [8] | [9] | [10] | [11] | [12] | [13] | [14] | [15] | [16] | [17] | [18] | [19] | [20] | [21] | [22] | [23] | [24] | [25] | [26] | [27] | [28] | [29] | [30] | [31] | [32] | [33] | [34] | [35] | [36] | [37] | [38] | [39] | [40] | [41] | [42] | [43] | [44] | [45] | [46] | [47] | [48] | [49] | [50] | [51] | [52] | [53] | [54] | [55] | [56] | [57] | [58]

O=[N+]([O-])c1ccc(Cl)cc1-n1nc(-c2ccccc2)cc1-c1ccccc1
> 100 µM: [1] | [2] | [3] | [4] | [5] | [6] | [7] | [8] | [9] | [10] | [11] | [12] | [13] | [14] | [15] | [16] | [17] | [18] | [19] | [21] | [22] | [23] | [24] | [25] | [26] | [27] | [28] | [29] | [30] | [32] | [33] | [34] | [35] | [36] | [38] | [39] | [40] | [41] | [42] | [43] | [44] | [45] | [46] | [47] | [59] | [48] | [49] | [50] | [51] | [52] | [53] | [54] | [55] | [56] | [57] | [58]
